Values quoted from earlier work in patent US9700048B2, “Agroformulation comprising copolymer of vinyllactam, N-alkyl acrylamide, and alkyl (meth)acrylate” (BASF SE, priority 2012, dated 2017).
≈ marks a conversion by molar mass, not a printed value.

Settings: at 20° C.

Cn1cc(C(=O)Nc2ccccc2-c2cc(F)c(F)c(F)c2)c(C(F)F)n1 [fluxapyroxad]
solubility in water: 3.88 µg/mL (≈ 10.2 µM)
